Tests used:
HepG2 = assay: In vitro proliferation, HepG2 cells; assay type: cell-based
Protocol: Å6 was also tested for its ability to inhibit the proliferation of cells other than endothelial cells in vitro.

3LL = 3LL metastasis model, related peptides; set-up: species or system mice; details: mouse, in vivo
Excerpt: This model has been utilized by a number of investigators. See, for example, Gorelik, E. et al., J. Nat'l. Canc. Inst. 65:1257-1264 (1980); Gorelik, E. et al., Rec. Results Canc Res. 75:20-28 (1980); Isakov, N. et al., Invasion Metas. 2:12-32 (1982); Talmadge J. E. et al., J. Nat'l. Canc. Inst. 69:975-980 (1982); Hilgard, P. et al, Br. J. Cancer 35:78-86 (1977)). Test mice are male C57BL/6 mice, 2-3 months old. Following sc, im, or intra-footpad implantation, this tumor produces metastases, preferentially in the lungs. With some lines of the tumor, the primary tumor exerts anti-metastatic effects and must first be excised before study of the metastatic phase (see also U.S. Pat. No. 5,639,725).
Single-cell suspensions are prepared from solid tumors by treating minced tumor tissue with a solution of 0.3% trypsin. Cells are washed 3 times with PBS (pH 7.4) and suspended in PBS. Viability of the 3LL cells prepared in this way is generally about 95-99% (by trypan blue dye exclusion). Viable tumor cells (3×10^4-5×10^6) suspended in 0.05 ml PBS are injected subcutaneously, either in the dorsal region or into one hind foot pad of C57BL/6 mice. Visible tumors appear after 3-4 days after dorsal sc injection of 10^6 cells. The day of tumor appearance and the diameters of established tumors are measured by caliper every two days.
The treatment is given as one or two doses of peptide or derivative, per week. In another embodiment, the peptide is delivered by osmotic minipump.
Lungs are removed and weighed. Lungs are fixed in Bouin's solution and the number of visible metastases is recorded. The diameters of the metastases are also measured using a binocular stereoscope equipped with a micrometer-containing ocular under 8× magnification. On the basis of the recorded diameters, it is possible to calculate the volume of each metastasis. To determine the total volume of metastases per lung, the mean number of visible metastases is multiplied by the mean volume of metastases. To further determine metastatic growth, it is possible to measure incorporation of ^125IdUrd into lung cells (Thakur, M. L. et al., J. Lab. Clin. Med. 89:217-228 (1977). Ten days following tumor amputation, 25 μg of fluorodeoxyuridine is inoculated into the peritoneums of tumor-bearing (and, if used, tumor-resected mice). After 30 min, mice are given 1 μCi of ^125IdUrd (iododeoxyuridine). One day later, lungs and spleens are removed and weighed, and a degree of ^125IdUrd incorporation is measured using a gamma counter.
(§1) In addition to Å6, other related peptide compounds described above are tested for efficacy in vivo in the 3LL model (as provided above) as well as the PC-3 model. PC-3 cells transfected with the gene encoding the enzyme chloramphenicol acetyl-transferase (CAT) are inoculated into mice i.v. at doses of 1×10^6 cells per mouse. These mice are implanted with a minipump, as above, which dispenses 100 mg/kg/day of the peptide or vehicle over a period of 14 or 21 days. At termination of treatment, the animals are euthanized and the tumor marker probe is assayed in regional lymph nodes, femurs, lungs, and brain.

Mat B-III tumors = assay: Rat syngeneic Mat B-III breast cancer model; assay type: in vivo
Protocol: The effects of the compounds are tested on tumor progression in a rat syngeneic model of breast cancer (Xing and Rabbani, 1996). Mat BIII rat breast tumor cells (1×10^6 cells in PBS, 0.1 mL per rat) are inoculated into the mammary fat pads of female Fisher rats. The test compound is dissolved in PBS (200 mM stock), sterile filtered and dispensed in vivo at a dose of up to about 100 mg/kg/day) using a 14-day Alza osmotic mini-pump implanted intraperitoneally at the time of inoculation. Control animals receive vehicle (PBS) alone. Animals are euthanized at day 14 and examined for metastasis in the spleen, lungs, liver, kidney and lymph nodes. In addition, the primary tumors are excised, quantitated, and prepared for immunohistochemistry.
The rat syngeneic breast cancer system (Xing and Rabbani, 1996) employs Mat BIIIrat breast cancer cells. When Mat B-III cells (1×10^6 cells) are inoculated into the mammary fat pad of female Fisher rats, they form large tumors which metastasize to regional lymph nodes (LNs) and other distal sites within 14-20 days.
Å6 was initially delivered prophylactically (infusion starting on the day of tumor inoculation) using an Alzet mini-pump that delivered 75 mg/kg/day. […] Metastasis was quantitated by counting the number of macroscopic foci without regard for their size.
Estrogen receptor-positive Mat B-III tumors were used to test combination treatment with Å6 (75 mg/kg/day) and TAM (3 mg/kg/day). In contrast to previous studies, the Mat B-III tumors (inoculated in the mammary fat pad) were staged to 40-50 mm^3 prior to the initiation of treatment. Treatment was continued for 8 days during which time primary tumor growth was measured using calipers (FIG. 14).

plasmin = plasmin (Homo sapiens, UniProt P00747); assay: Plasmin activity; assay type: biochemical
scuPA-suPAR complex = scuPA-suPAR complex (Homo sapiens, UniProt P00749); assay: Clot lysis assay ([125I] fibrin clots); assay type: biochemical; details: 30 minutes after initiation of clot lysis (FIG. 3)
Protocol: Fibrin clots were formed by supplementing plasma with [^125I] fibrinogen. Clotting was initiated by adding thrombin and calcium to the plasma mixture. Clots were washed to remove any free radioactivity, plasminogen and the activator to be tested were added to the clot and the release of [^125I] fibrin degradation products was monitored. The data presented in this figure is at 30 minutes after initiation of clot lysis. scuPA-suPAR: dose response with Å6 on clot lysis by scuPA-suPAR complex; scuPA: dose response on clot lysis by scuPA alone; scuPA/suPAR+scrambled pep: dose response with a scrambled version of Å6 (Ac-[sequence]-Am) (SEQ ID NO: 10).

PC-3 cells = assay: PC-3 CAT metastasis model; assay type: in vivo, mice; details: minipump 100 mg/kg/day, 14 or 21 days
Protocol: The compounds of this invention are also tested for inhibition of late metastasis using an experimental metastasis model (Crowley et al., 1993). Late metastasis involves the steps of attachment and extravasation of tumor cells, local invasion, seeding, proliferation and angiogenesis.
Human prostatic carcinoma cells (PC-3) transfected with a reporter gene, preferably the green fluorescent protein (GFP) gene, but as an alternative with a gene encoding the enzymes chioramphenicol acetyl-transferase (CAT), luciferase or LacZ. This permits utilization of either of these markers (fluorescence detection of GFP or histochemical colorimetric detection of enzymatic activity) for following the fate of these cells. Cells are injected, preferably iv, and metastases identified after about 14 days, particularly in the lungs but also in regional lymph nodes, femurs and brain. This mimics the organ tropism of naturally occurring metastases of prostate cancer. For example, GFP-expressing PC-3 cells (1×10^6 cells per mouse) are injected iv into the tail veins of nude (nu/nu) mice. Animals are also implanted with mini-pumps (sub-dermally on the back) dispensing either the test compound (at least about 100 mg/kg/day) or vehicle. The animals are euthanized after 14 days and their organs prepared for histological examination. Single metastatic cells and foci are visualized and quantitated by fluorescence microscopy or light microscopic histochemistry or by grinding the tissue and quantitative colorimetric assay of the detectable label.
as §1

[1] = Alzet mini-pump 75 mg/kg/day from the day of tumor inoculation
[2] = comparative analysis of related peptides

Sequence of plasmin (P00747 97-580 limits assumed, species assumed): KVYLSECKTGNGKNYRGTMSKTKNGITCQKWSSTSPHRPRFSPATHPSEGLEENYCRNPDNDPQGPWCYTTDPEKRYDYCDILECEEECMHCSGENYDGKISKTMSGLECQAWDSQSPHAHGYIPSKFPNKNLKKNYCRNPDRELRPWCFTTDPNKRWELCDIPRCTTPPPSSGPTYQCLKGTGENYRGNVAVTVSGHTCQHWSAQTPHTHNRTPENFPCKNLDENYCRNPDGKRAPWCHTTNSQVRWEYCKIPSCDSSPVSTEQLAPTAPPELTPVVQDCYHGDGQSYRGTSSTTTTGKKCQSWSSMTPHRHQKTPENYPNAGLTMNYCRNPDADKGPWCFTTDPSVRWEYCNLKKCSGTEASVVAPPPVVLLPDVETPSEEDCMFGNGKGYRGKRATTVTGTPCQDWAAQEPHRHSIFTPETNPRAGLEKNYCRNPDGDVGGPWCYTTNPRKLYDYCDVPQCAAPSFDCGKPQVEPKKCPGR
Sequence of plasmin (P00747 581-810 limits assumed, species assumed): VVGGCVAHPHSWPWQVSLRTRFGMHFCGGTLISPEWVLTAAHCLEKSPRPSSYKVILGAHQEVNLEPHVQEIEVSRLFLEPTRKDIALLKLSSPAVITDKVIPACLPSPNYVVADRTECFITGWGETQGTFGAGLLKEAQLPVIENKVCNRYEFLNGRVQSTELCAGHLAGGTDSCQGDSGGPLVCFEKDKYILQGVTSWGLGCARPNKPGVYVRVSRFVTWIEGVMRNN

For “Ac-KPSSPPEE-NH2 [Å6, CH3CO-Lys-Pro-Ser-Ser-Pro-Pro-Glu-Glu-NH2]”, the “anti-proliferative effect, HepG2” value (HepG2) was “No anti-proliferative effects”, the “metastasis, 3LL model” value (3LL) was “markedly inhibited” and the LN metastasis (Mat B-III tumors; [1]) was “inhibition”. For the same substance, the tumor growth (Mat B-III tumors; [1]) was “inhibition”, the “number of metastases in the spleen, lungs, liver, kidney and lymph nodes” value (Mat B-III tumors; [2]) was “significant reduction” and the “size of the primary tumor” value (Mat B-III tumors; [2]) was “significant reduction”. For the same substance, the “necrosis of the primary tumor periphery” value (Mat B-III tumors; histological analysis, Å6-treated rats) was 50-75%, the “decrease in Factor VIII-positive foci” value (Mat B-III tumors; tumor sections) was 40-60% and the “TUNEL assay for apoptosis of tumor cells” value (Mat B-III tumors; Å6-treated groups) was “stained positive”. For the same substance, the “effect on the activity of plasmin directly” value (plasmin) was “did not affect”, the “scuPA-suPAR mediated clot lysis” value (scuPA-suPAR complex) was “inhibits” and the “metastasis, PC-3 model” value (PC-3 cells) was “markedly inhibited”.

Source: patent US8110543B2, “Anti-invasive and anti-angiogenic compositions” (Angstrom Pharmaceuticals, Inc., priority 1997, dated 2012)
